In PubChem BioAssay AID248 (DTP/NCI, 2004):
Several values for one entry are separate records, joined by “and”; a condition that tells them apart may be missing. Equal values may be shown once. Inconclusive results and toxic doses are left out. Cut-off read from the data, not from the text of the source: active = T/C of 150% or more; inactive = T/C below 125%.

Tested on: L1210 leukemia ip in BDF1 mice, survival T/C
Test: NCI In Vivo Anticancer Drug Screen. Data for tumor model L1210 Leukemia (intraperitoneal) in B6D2F1 (BDF1) mice
Settings: endpoint: mean survival time, higher = longer survival
Procedure, shortened: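 Antitumor effect is assessed in tumor-bearing animals. Survival in the compound arm is compared with a vehicle-dosed control arm and expressed as their quotient.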

[1] = dose: 100.0 mg/kg/injection, schedule: Q01DX001 (ip), vehicle: other
[2] = dose: 100.0 mg/kg/injection, schedule: Q04DX002 (ip), vehicle: Klucel (hydroxypropylcellulose) (HPC)
[3] = dose: 200.0 mg/kg/injection, schedule: Q04DX002 (ip), vehicle: Klucel (hydroxypropylcellulose) (HPC)
[4] = dose: 400.0 mg/kg/injection, schedule: Q04DX002 (ip), vehicle: Klucel (hydroxypropylcellulose) (HPC)
[5] = dose: 50.0 mg/kg/injection, schedule: Q01DX009 (ip), vehicle: saline with Tween-80
[6] = dose: 100.0 mg/kg/injection, schedule: Q01DX009 (ip), vehicle: saline with Tween-80
[7] = dose: 200.0 mg/kg/injection, schedule: Q01DX009 (ip), vehicle: saline with Tween-80
[8] = dose: 100.0 mg/kg/injection, schedule: Q04DX003 (ip), vehicle: saline with Tween-80
[9] = dose: 200.0 mg/kg/injection, schedule: Q04DX003 (ip), vehicle: saline with Tween-80
[10] = dose: 400.0 mg/kg/injection, schedule: Q04DX003 (ip), vehicle: saline with Tween-80
[11] = dose: 20.0 mg/kg/injection, schedule: Q01DX009 (ip), vehicle: saline
[12] = dose: 50.0 mg/kg/injection, schedule: Q04DX002 (ip), vehicle: Klucel (hydroxypropylcellulose) (HPC)
[13] = dose: 100.0 mg/kg/injection, schedule: Q01DX001 (ip), vehicle: saline
[14] = dose: 200.0 mg/kg/injection, schedule: Q01DX001 (ip), vehicle: saline
[15] = dose: 400.0 mg/kg/injection, schedule: Q01DX001 (ip), vehicle: saline
[16] = dose: 25.0 mg/kg/injection, schedule: Q04DX003 (ip), vehicle: saline
[17] = dose: 50.0 mg/kg/injection, schedule: Q04DX003 (ip), vehicle: saline

Measured: T/C

C1=Cc2ccccc2/C1=C/c1ccccc1
inactive: [1] 97 % of control | dose: 200.0 mg/kg/injection, schedule: Q01DX001 (ip), vehicle: other 95 % of control | dose: 400.0 mg/kg/injection, schedule: Q01DX001 (ip), vehicle: other 92 % of control

Cc1cc(C)c(NC(=O)Cc2ccccc2)cc1C
inactive: [2] 96 % of control | [3] 96 % of control | [4] 89 % of control

O=C(O)c1cccc2c1OCO2
inactive: [5] 112 % of control | [6] 98 % of control | dose: 100.0 mg/kg/injection, schedule: Q04DX002 (ip), vehicle: saline with Tween-80 103 % of control | [7] 98 % of control | dose: 200.0 mg/kg/injection, schedule: Q04DX002 (ip), vehicle: saline with Tween-80 95 % of control

O=C1C=CCCCC1
inactive: dose: 25.0 mg/kg/injection, schedule: Q01DX009 (ip), vehicle: saline with Tween-80 95 % of control | [5] 101 % of control | [6] 103 % of control | [8] 103 % of control

O=C(c1ccccc1)C(Cl)C(O)(C(F)(F)F)C(F)(F)F (stereo not drawn)
inactive: [5] 96 % of control | [6] 92 % of control | [7] 108 % of control

COc1cc(Oc2c(OC)cc(/C(C)=N/O)cc2OC)cc(OC)c1OC
inactive: [8] 105 % of control | [9] 92 % of control | [10] 95 % of control

CC(Cl)CN(CC(C)Cl)c1ccc(S(=O)(=O)Nc2ncccn2)cc1 (stereo not drawn)
inactive: dose: 5.0 mg/kg/injection, schedule: Q01DX009 (ip), vehicle: gum acacia 107 % of control | dose: 5.0 mg/kg/injection, schedule: Q01DX009 (ip), vehicle: saline 104 % of control | dose: 8.0 mg/kg/injection, schedule: Q01DX009 (ip), vehicle: gum acacia 100 % of control | dose: 10.0 mg/kg/injection, schedule: Q01DX009 (ip), vehicle: saline 98 % of control | dose: 12.0 mg/kg/injection, schedule: Q01DX009 (ip), vehicle: gum acacia 96 % of control | [11] 105 % of control | dose: 30.0 mg/kg/injection, schedule: Q01DX009 (ip), vehicle: saline 111 % of control | dose: 45.0 mg/kg/injection, schedule: Q01DX009 (ip), vehicle: saline 114 % of control and 117 % of control | dose: 80.0 mg/kg/injection, schedule: Q01DX009 (ip), vehicle: other 122 % of control | dose: 80.0 mg/kg/injection, schedule: Q01DX009 (ip), vehicle: saline with Tween-80 123 % of control | dose: 80.0 mg/kg/injection, schedule: Q01DX009 (ip), vehicle: saline 106 % of control and 108 % of control | dose: 90.0 mg/kg/injection, schedule: Q01DX009 (ip), vehicle: saline 120 % of control | dose: 120.0 mg/kg/injection, schedule: Q01DX009 (ip), vehicle: other 121 % of control | dose: 120.0 mg/kg/injection, schedule: Q01DX009 (ip), vehicle: saline 111 % of control | dose: 180.0 mg/kg/injection, schedule: Q01DX009 (ip), vehicle: other 98 % of control

CC(C)=NOS(=O)(=O)c1c(C)cc(C)cc1C
inactive: [12] 98 % of control | dose: 100.0 mg/kg/injection, schedule: Q01DX009 (ip), vehicle: Klucel (hydroxypropylcellulose) (HPC) 87 % of control | [2] 98 % of control and 89 % of control | dose: 200.0 mg/kg/injection, schedule: Q01DX009 (ip), vehicle: Klucel (hydroxypropylcellulose) (HPC) 97 % of control | [3] 105 % of control | dose: 400.0 mg/kg/injection, schedule: Q01DX009 (ip), vehicle: Klucel (hydroxypropylcellulose) (HPC) 97 % of control | [4] 92 % of control

Cc1nnc(NS(=O)(=O)c2ccc(N=Nc3c(N)[nH]c(=S)[nH]c3=O)cc2)s1
inactive: [13] 100 % of control | [14] 100 % of control | [15] 100 % of control

CC1(C)S[C@@H]2[C@H](NC=O)C(=O)N2[C@H]1C(=O)OCc1ccccc1
inactive: dose: 75.0 mg/kg/injection, schedule: Q01DX001 (ip), vehicle: carboxymethylcellulose (CMC) 90 % of control | dose: 150.0 mg/kg/injection, schedule: Q01DX001 (ip), vehicle: carboxymethylcellulose (CMC) 86 % of control

CC(C)C(CN)(CCN(C)C)c1cccc2ccccc12 (stereo not drawn)
inactive: [8] 88 % of control

CN1CCCC1CCCl (stereo not drawn)
inactive: dose: 12.5 mg/kg/injection, schedule: Q01DX001 (ip), vehicle: saline 97 % of control | dose: 12.5 mg/kg/injection, schedule: Q04DX003 (ip), vehicle: saline 88 % of control | dose: 25.0 mg/kg/injection, schedule: Q01DX001 (ip), vehicle: saline 100 % of control | [16] 95 % of control | dose: 50.0 mg/kg/injection, schedule: Q01DX001 (ip), vehicle: saline 100 % of control | [17] 95 % of control | dose: 75.0 mg/kg/injection, schedule: Q04DX003 (ip), vehicle: saline 100 % of control

N#Cc1ccc[n+]([O-])c1
inactive: [8] 100 % of control | [9] 101 % of control | [10] 97 % of control

CCCCc1csc(=S)[nH]1
inactive: dose: 100.0 mg/kg/injection, schedule: Q01DX001 (sc), vehicle: carboxymethylcellulose (CMC) 100 % of control | dose: 200.0 mg/kg/injection, schedule: Q01DX001 (sc), vehicle: carboxymethylcellulose (CMC) 113 % of control | dose: 400.0 mg/kg/injection, schedule: Q01DX001 (sc), vehicle: carboxymethylcellulose (CMC) 110 % of control

CN1CCN(C(c2ccccc2)c2ccccc2)CC1
inactive: dose: 3.12 mg/kg/injection, schedule: Q01DX009 (ip), vehicle: Klucel (hydroxypropylcellulose) (HPC) 97 % of control | dose: 6.25 mg/kg/injection, schedule: Q01DX009 (ip), vehicle: Klucel (hydroxypropylcellulose) (HPC) 102 % of control | dose: 12.5 mg/kg/injection, schedule: Q01DX009 (ip), vehicle: Klucel (hydroxypropylcellulose) (HPC) 97 % of control | dose: 25.0 mg/kg/injection, schedule: Q01DX009 (ip), vehicle: Klucel (hydroxypropylcellulose) (HPC) 108 % of control | dose: 25.0 mg/kg/injection, schedule: Q04DX003 (ip), vehicle: Klucel (hydroxypropylcellulose) (HPC) 97 % of control | dose: 50.0 mg/kg/injection, schedule: Q01DX009 (ip), vehicle: Klucel (hydroxypropylcellulose) (HPC) 103 % of control | dose: 50.0 mg/kg/injection, schedule: Q04DX003 (ip), vehicle: Klucel (hydroxypropylcellulose) (HPC) 92 % of control

COC1OC(CBr)C(OC(=O)c2ccccc2)C(OC(=O)c2ccccc2)C1OS(=O)(=O)c1ccc(C)cc1 (stereo not drawn)
inactive: [12] 97 % of control | [2] 87 % of control | [3] 97 % of control

COc1cc([N+](=O)[O-])c2nc(/C=N/NC(N)=S)ccc2c1[N+](=O)[O-]
inactive: [14] 86 % of control

O=C(CC(O)(C(F)(F)F)C(F)(F)F)c1cc(CC(=O)C(O)(C(F)(F)F)C(F)(F)F)cc(CC(=O)C(O)(C(F)(F)F)C(F)(F)F)c1
inactive: dose: 100.0 mg/kg/injection, schedule: Q04DX003 (ip), vehicle: Klucel (hydroxypropylcellulose) (HPC) 100 % of control | dose: 200.0 mg/kg/injection, schedule: Q04DX003 (ip), vehicle: Klucel (hydroxypropylcellulose) (HPC) 92 % of control | dose: 400.0 mg/kg/injection, schedule: Q04DX003 (ip), vehicle: Klucel (hydroxypropylcellulose) (HPC) 97 % of control

CC1(C)N=C(N)N=C(N)N1c1cccc(OCCC#N)c1
inactive: [16] 112 % of control | [17] 108 % of control | dose: 100.0 mg/kg/injection, schedule: Q04DX003 (ip), vehicle: saline 100 % of control and 104 % of control

O=[N+]([O-])CC(C[N+](=O)[O-])C(F)(F)C(F)(F)C(F)(F)F
inactive: [1] 101 % of control

CC1(C)N=C(N)N=C(N)N1c1ccc(C(=O)Nc2ccc(S(=O)(=O)F)cc2)cc1
inactive: dose: 0.8 mg/kg/injection, schedule: Q01DX009 (ip), vehicle: saline 101 % of control | dose: 4.0 mg/kg/injection, schedule: Q01DX009 (ip), vehicle: saline 100 % of control | [11] 95 % of control | dose: 100.0 mg/kg/injection, schedule: Q01DX009 (ip), vehicle: saline 97 % of control | dose: 500.0 mg/kg/injection, schedule: Q01DX009 (ip), vehicle: saline 101 % of control

O=c1nc2n(CC(O)C(O)C(O)CO)c3ccccc3cc-2c(=O)[nH]1 (stereo not drawn)
inactive: [13] 90 % of control | [14] 90 % of control | [15] 93 % of control
